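The compound was tested at five concentrations on cells cultured in 96-well plates, with a 48-hour exposure period. GI50 marks 50% less growth. TGI denotes the concentration required for complete inhibition of growth.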
Legend:
Assay in all cases: DTP human tumour cell line panel, 48 h
M14 melanoma = test system: M14 melanoma
UO-31 renal = test system: UO-31 renal
IGROV1 ovarian = test system: IGROV1 ovarian
A549 NSCLC = test system: A549 NSCLC
SW-620 colon = test system: SW-620 colon
NCI-H522 lung = test system: NCI-H522 lung
PC-3 prostate = test system: PC-3 prostate
OVCAR-3 ovarian = test system: OVCAR-3 ovarian
COLO 205 colon = test system: COLO 205 colon
MDA-MB-231 breast = test system: MDA-MB-231 breast
NCI/ADR-RES ovarian = test system: NCI/ADR-RES ovarian
DU-145 prostate = test system: DU-145 prostate
MALME-3M melanoma = test system: MALME-3M melanoma
NCI-H226 lung = test system: NCI-H226 lung
TK-10 renal = test system: TK-10 renal
SF-539 CNS = test system: SF-539 CNS
MCF7 breast = test system: MCF7 breast
BT-549 breast = test system: BT-549 breast
A498 renal = test system: A498 renal
OVCAR-8 ovarian = test system: OVCAR-8 ovarian
T-47D breast = test system: T-47D breast
HOP-92 NSCLC = test system: HOP-92 NSCLC
NCI-H460 lung = test system: NCI-H460 lung
SK-MEL-5 melanoma = test system: SK-MEL-5 melanoma
MOLT-4 leukemia = test system: MOLT-4 leukemia
ACHN renal = test system: ACHN renal
HT29 colon = test system: HT29 colon
EKVX NSCLC = test system: EKVX NSCLC
NCI-H23 lung = test system: NCI-H23 lung
SK-MEL-2 melanoma = test system: SK-MEL-2 melanoma
SK-OV-3 ovarian = test system: SK-OV-3 ovarian
LOX IMVI melanoma = test system: LOX IMVI melanoma
HCC-2998 colon = test system: HCC-2998 colon
CCRF-CEM leukemia = test system: CCRF-CEM leukemia
UACC-257 melanoma = test system: UACC-257 melanoma
OVCAR-4 ovarian = test system: OVCAR-4 ovarian
SR leukemia = test system: SR leukemia
CAKI-1 renal = test system: CAKI-1 renal
MDA-MB-435 = test system: MDA-MB-435
UACC-62 melanoma = test system: UACC-62 melanoma
SF-268 CNS = test system: SF-268 CNS
HCT-15 colon = test system: HCT-15 colon
K-562 leukemia = test system: K-562 leukemia
U251 CNS = test system: U251 CNS
SN12C renal = test system: SN12C renal
HCT-116 colon = test system: HCT-116 colon
SF-295 CNS = test system: SF-295 CNS
HL-60(TB) leukemia = test system: HL-60(TB) leukemia
SNB-75 CNS = test system: SNB-75 CNS
HOP-62 NSCLC = test system: HOP-62 NSCLC
RPMI-8226 leukemia = test system: RPMI-8226 leukemia
RXF 393 renal = test system: RXF 393 renal
SNB-19 CNS = test system: SNB-19 CNS
OVCAR-5 ovarian = test system: OVCAR-5 ovarian
SK-MEL-28 melanoma = test system: SK-MEL-28 melanoma
KM12 colon = test system: KM12 colon
HS 578T breast = test system: HS 578T breast
786-0 renal = test system: 786-0 renal

CCOC(=O)c1sc(NCC(=O)Nc2cccc([N+](=O)[O-])c2)c(C(=O)OCC)c1C gave a GI50 (M14 melanoma) of 329 nM, a TGI (M14 melanoma) of 1300 nM and a GI50 (UO-31 renal) of 202 nM. For the same compound, the TGI (UO-31 renal) was 522 nM, the GI50 (IGROV1 ovarian) was 238 nM and the TGI (IGROV1 ovarian) was 693 nM. For the same compound, the GI50 (A549 NSCLC) was 461 nM, the TGI (A549 NSCLC) was 3060 nM and the GI50 (SW-620 colon) was 325 nM. For the same compound, the TGI (SW-620 colon) was 1900 nM, the GI50 (NCI-H522 lung) was 251 nM and the TGI (NCI-H522 lung) was 757 nM. For the same compound, the GI50 (PC-3 prostate) was 229 nM, the TGI (PC-3 prostate) was 598 nM and the GI50 (OVCAR-3 ovarian) was 376 nM. It also gave a TGI (OVCAR-3 ovarian) of 1750 nM, a GI50 (COLO 205 colon) of 287 nM and a TGI (COLO 205 colon) of 846 nM. For the same compound, the GI50 (MDA-MB-231 breast) was 1230 nM, the TGI (MDA-MB-231 breast) was 3850 nM and the GI50 (NCI/ADR-RES ovarian) was 319 nM. For the same compound, the TGI (NCI/ADR-RES ovarian) was 1580 nM, the GI50 (DU-145 prostate) was 760 nM and the TGI (DU-145 prostate) was 6320 nM. It also gave a GI50 (MALME-3M melanoma) of 231 nM, a TGI (MALME-3M melanoma) of 598 nM and a GI50 (NCI-H226 lung) of 230 nM. For the same compound, the TGI (NCI-H226 lung) was 602 nM, the GI50 (TK-10 renal) was 263 nM and the TGI (TK-10 renal) was 1270 nM. The GI50 (SF-539 CNS) was 300 nM, the TGI (SF-539 CNS) was 880 nM and the GI50 (MCF7 breast) was 274 nM. The TGI (MCF7 breast) was 1030 nM, the GI50 (BT-549 breast) was 258 nM and the TGI (BT-549 breast) was 769 nM. The GI50 (A498 renal) was 309 nM, the TGI (A498 renal) was 1160 nM and the GI50 (OVCAR-8 ovarian) was 375 nM. For the same compound, the GI50 (T-47D breast) was 1270 nM, the TGI (T-47D breast) was 3880 nM and the GI50 (HOP-92 NSCLC) was 221 nM. It also gave a TGI (HOP-92 NSCLC) of 873 nM, a GI50 (NCI-H460 lung) of 313 nM and a TGI (NCI-H460 lung) of 963 nM. For the same compound, the GI50 (SK-MEL-5 melanoma) was 346 nM, the TGI (SK-MEL-5 melanoma) was 1230 nM and the GI50 (MOLT-4 leukemia) was 342 nM. The TGI (MOLT-4 leukemia) was greater than 33200 nM, the GI50 (ACHN renal) was 289 nM and the TGI (ACHN renal) was 797 nM. For the same compound, the GI50 (HT29 colon) was 272 nM, the TGI (HT29 colon) was 821 nM and the GI50 (EKVX NSCLC) was 1650 nM. It also gave a TGI (EKVX NSCLC) of 4530 nM, a GI50 (NCI-H23 lung) of 241 nM and a TGI (NCI-H23 lung) of 665 nM. The GI50 (SK-MEL-2 melanoma) was 1770 nM, the TGI (SK-MEL-2 melanoma) was 4790 nM and the GI50 (SK-OV-3 ovarian) was 307 nM. It also gave a TGI (SK-OV-3 ovarian) of 838 nM, a GI50 (LOX IMVI melanoma) of 172 nM and a TGI (LOX IMVI melanoma) of 358 nM. It also gave a GI50 (HCC-2998 colon) of 1400 nM, a TGI (HCC-2998 colon) of 3470 nM and a GI50 (CCRF-CEM leukemia) of 288 nM. The GI50 (UACC-257 melanoma) was 1060 nM, the TGI (UACC-257 melanoma) was 5240 nM and the GI50 (OVCAR-4 ovarian) was 897 nM. The TGI (OVCAR-4 ovarian) was 5180 nM, the GI50 (SR leukemia) was 354 nM and the GI50 (CAKI-1 renal) was 267 nM. For the same compound, the TGI (CAKI-1 renal) was 810 nM, the GI50 (MDA-MB-435) was 486 nM and the TGI (MDA-MB-435) was 1760 nM. The GI50 (UACC-62 melanoma) was 173 nM, the TGI (UACC-62 melanoma) was 381 nM and the GI50 (SF-268 CNS) was 961 nM. It also gave a TGI (SF-268 CNS) of 3740 nM, a GI50 (HCT-15 colon) of 286 nM and a TGI (HCT-15 colon) of 1840 nM. The GI50 (K-562 leukemia) was 333 nM, the TGI (K-562 leukemia) was greater than 36700 nM and the GI50 (U251 CNS) was 274 nM. It also gave a TGI (U251 CNS) of 1080 nM, a GI50 (SN12C renal) of 285 nM and a TGI (SN12C renal) of 930 nM. For the same compound, the GI50 (HCT-116 colon) was 303 nM, the TGI (HCT-116 colon) was 1360 nM and the GI50 (SF-295 CNS) was 543 nM. The TGI (SF-295 CNS) was 3770 nM, the GI50 (HL-60(TB) leukemia) was 464 nM and the GI50 (SNB-75 CNS) was 790 nM. The TGI (SNB-75 CNS) was 3440 nM, the GI50 (HOP-62 NSCLC) was 1020 nM and the TGI (HOP-62 NSCLC) was 4130 nM. For the same compound, the GI50 (RPMI-8226 leukemia) was 366 nM, the TGI (RPMI-8226 leukemia) was 1750 nM and the GI50 (RXF 393 renal) was 175 nM. It also gave a TGI (RXF 393 renal) of 348 nM, a GI50 (SNB-19 CNS) of 496 nM and a TGI (SNB-19 CNS) of 4740 nM. It also gave a GI50 (OVCAR-5 ovarian) of 283 nM, a TGI (OVCAR-5 ovarian) of 824 nM and a GI50 (SK-MEL-28 melanoma) of 291 nM. For the same compound, the TGI (SK-MEL-28 melanoma) was 883 nM, the GI50 (KM12 colon) was 539 nM and the TGI (KM12 colon) was 3970 nM. The GI50 (HS 578T breast) was 270 nM, the TGI (HS 578T breast) was 1030 nM and the GI50 (786-0 renal) was 254 nM. The TGI (786-0 renal) was 907 nM.

From PubChem BioAssay (NCI)
